In PMC10058894, “Bioactive C21 Steroidal Glycosides from Euphorbia kansui Promoted HepG2 Cell Apoptosis via the Degradation of ATP1A1 and Inhibited Macrophage Polarization under Co-Cultivation” (Molecules, 2023):

What was measured:
HepG2 cells [1] = test: MTT assay, cell viability of HepG2 cells; assay type: cell-based; conditions: Homo sapiens, HepG2, 48 h
Procedure: HepG2 cells (1 × 10^4 cells/well) or RAW264.7 cells ([…]) were incubated in 96T wells for 24 h. Then, HepG2 cells were treated with compounds or Adriamycin for 48 h. In addition, RAW264.7 cells were treated with compounds for 24 h. Then, 0.5% MTT (Sigma, Saint Louis, MO, USA) was added to 20 μL/well for 3.5 h. The supernatant was discarded, and DMSO (150 μL/well) was added to dissolve the purple formazan. Cells were agitated for 15 min at room temperature, and the absorbance at 490 nm was recorded by SpetraMax M2 (Molecular Devices, San Jose, CA, USA).

[2] = system: NO production of LPS-stimulated RAW264.7 cells; test: Nitric oxide production in LPS-stimulated RAW264.7 cells (Griess); assay type: cell-based
Procedure: RAW264.7 cells (8 × 10^4 cells/well) were incubated in 96T wells with DMEM for 24 h and then treated with compounds and LPS (1 μg/mL) for 24 h; this included the control group and LPS group. Then, the cell supernatant was collected for nitric oxide production assay. Next, 100 uL/well PBS was added to 96T wells, then 0.5% MTT (Sigma, Saint Louis, MO, USA) was added to 20 μL/well for 3.5 h. DMSO (150 μL/well) was added to dissolve the purple formazan. Cells were agitated for 15 min at room temperature, and the absorbance at 490 nm was recorded by SpetraMax M2 (Molecular Devices, San Jose, CA, USA). The NO inhibition rate (%) = (ODLPS group − ODcompound group)/(ODLPS group-ODcontrol group) × 100%. The IC50 value refers to the inhibitory of nitric oxide production of LPS-stimulated RAW264.7 cells. Then, 70 uL of each cell supernatant sample was added into a new 96T plate, and Griess A and Griess B were added separately. Then, the absorbance value at 540 nm was detected and then brought into the standard curve to assay the concentration of NO. The cell survival rate (%) = (ODcompound group − ODblank group)/(ODcontrol group − ODblank group) × 100%. The half concentration of the cell death (CC50) value refers to the concentration of compound 5 when 50% of RAW264.7 cells die. The iNOS inhibitor ([…], L-NMMA) was selected as the positive control. The levels of cytokines (IL-1β, IFN-γ, IL-10, TNF-α, and IL-6) in the cell supernatant were determined using an ELISA kit (Novus Biologicals, Shanghai, China, Lot: 834472, 770118, 772051, 486956, 602865). When the process was conducted according to the manufacturer’s instructions, the absorbance was read at 450 nm/570 nm in a SpectraMax 340PC microplate spectrophotometer (Molecular Devices, San Jose, CA, USA).

HepG2 cells [3] = test: Scratch test and colony formation assay; assay type: cell-based; conditions: scratch 36 h, colony 7 days, 12.5 and 25 μmol
Procedure: HepG2 cells (8 × 10^4 cells/well) were incubated in 24-well plates for 24 h. Cells were treated with a compound for 36 h after making a uniform straight from scratch with a 200 μL pipette tip. Cell motility was detected by measuring the wound closure distance after 36 h. Images were recorded using an inverted microscope (Olympus CK40, Shinjuku, Japan). HepG2 cells (600 cells/well) were incubated in 6-well plates and treated with the compound. One week later, visible colonies had formed. Then, the colonies were fixed with 4% polymethanol paraformaldehyde and stained with crystal violet (0.005%). The number of colonies was calculated by using a microscope.

Na+-K+-ATPase = target: T1, Na+-K+-ATPase (Homo sapiens, UniProt P05023); test: Na+-K+-ATPase enzyme activity detection kit; assay type: biochemical; conditions: HepG2 cells
T1 construct: endogenous in cells; host or cells: HepG2 (sonicated lysate supernatant)
Procedure: HepG2 cells were collected in centrifuge tubes, and every 5 million cells were added to 1 mL reagent to sonicate the cells (power 20%, ultrasound 3S, interval 10 s, repeat 30 times). Then, the samples were centrifuged at 8000 rpm/min for 10 min at 4 °C. The supernatant was then collected and placed on ice for testing. The operation was performed according to the instructions of the Na^+-K^+-ATPase enzyme activity detection kit (Solarbio, Beijing, China).

Huh-7 cells = test: Apoptosis of Huh-7 cells by flow cytometry (Annexin V/PI); assay type: cell-based
Description: 2. The anti-proliferation of compound 5 on Huh-7 cells
We tested another hepatoma cell line (Huh-7) to validate effect of compound 5. L02 (normal hepatocytes), HepG2 and Hub-7 cells were used to discuss the effect of 5. […]
of 5 on Huh-7 cell was (24.49±[…]) μM (Table S1). The morphology and apoptosis of the cells by reversed microscope and flow cytometry, respectively.
Second, the expression and phosphorylation of ATP1A1 were detected by Western blot analysis in L02, HepG2 and Huh-7 cells. Compared with L02 group, the expression of ATP1A1 was higher in HepG2 and Huh-7 cells, but there was no significant difference in the phosphorylation of ATP1A1 (Figure […]
At last, the effect of 5 on the expression and the phosphorylation of ATP1A1 in Huh-7 cells was […]
the phosphorylation of ATP1A1. The result was consistent with that observed in HepG2 cells (Figure […]
Table S1 Cell viability of Huh-7 cell treated by compound 5
Figure S2 Compound 5 inhibited the proliferation and the level of ATP1A1 protein in Huh-7 cells L5, low concentration of 5 (12.5 μmol-1 ); H5, high concentration of 5 (25 μmol-1). […] (B) Image of cell apoptosis in Huh-7 cells was detected by flow cytometry. The cells were double stained with Annexin V and PI. […] Data are expressed as the mean ± standard deviation (n=3). *p<0.05, **p<0.01, ***p<0.001 vs. the control group. […]

C[C@H](O)[C@]1(O)CC[C@@]2(O)[C@]1(C)[C@H](OC(=O)/C=C/c1ccccc1)C[C@@H]1[C@@]3(C)CC[C@H](O[C@H]4C[C@H](O)[C@H](O)[C@@H](C)O4)CC3=CC[C@]12O [Compound 5, Cynsaccatol L]
IC50 (HepG2 cells [1]): 12.6 ± 2.13 µM
inhibitory activity on NO production relative to the positive control drug (L-NMMA) ([2]; LPS-stimulated RAW264.7 cells): 1000 times
IC50 ([2]; Mus musculus, LPS (1 μg/mL)-stimulated RAW264.7 cells, 24 h, read-out: RAW264.7 IC50 (inhibition of nitric oxide production)): 0.02 ± 0.02 µM
cell migration and proliferation (scratch and colony formation) (HepG2 cells [3]): greatly inhibited
activity of NAK (Na+-K+-ATPase) (Na+-K+-ATPase): inhibited
apoptosis of Huh-7 cells (Huh-7 cells): induce apoptosis of Huh-7 cells
